Laboratory results published in US20250353891A1 (MEDIMMUNE LIMITED, priority 2022, published 2025).
Starred links: 1 amine or outer side, 2 acyl side, 3 side chain; linkers in the order of their positions; H or OH if unused. Non-standard residues stand in square brackets, D forms with d. Residues, ends and D or L forms follow the SMILES beside them. Groups on a side chain read outwards from the residue. *: point of attachment. PEG12 = NCCOCCOCCOCCOCCOCCOCCOCCOCCOCCOCCOCCOCCC(=O)O; C18 diacid = O=C(O)CCCCCCCCCCCCCCCCC(=O)*; PEG8 = NCCOCCOCCOCCOCCOCCOCCOCCOCCC(=O)O; Dip = N[C@H](C(=O)O)C(c1ccccc1)c1ccccc1; γGlu = O=C(O)[C@H](CCC(=O)[*:2])N[*:1]; Stearoyl = CCCCCCCCCCCCCCCCCC(=O)*; αMeF = C[C@](N)(Cc1ccccc1)C(=O)O; PEG4 = NCCOCCOCCOCCOCCC(=O)O; PEG2 = NCCOCCOCCC(=O)O; AEEA = NCCOCCOCC(=O)O; Aib = CC(C)(N)C(=O)O

Assays:
[1] = target: human GLP-1 receptor (hGLP-1R) (Homo sapiens, UniProt P43220); assay: cAMP production (HTRF) in CHO cells expressing hGLP-1R; assay type: cell-based; parameters: expressed in transfected cells; conditions: for EC50: Table 6, peptides modified at position 17, cAMP in CHO hGLP-1R cells, geometric mean, read-out: hGLP-1R EC50; for % Relative Potency Ratio: Table 6, % GLP-1R activity relative to GLP-1 / % GlucR activity relative to glucagon
Chain of human GLP-1 receptor (hGLP-1R) (P43220 24-463): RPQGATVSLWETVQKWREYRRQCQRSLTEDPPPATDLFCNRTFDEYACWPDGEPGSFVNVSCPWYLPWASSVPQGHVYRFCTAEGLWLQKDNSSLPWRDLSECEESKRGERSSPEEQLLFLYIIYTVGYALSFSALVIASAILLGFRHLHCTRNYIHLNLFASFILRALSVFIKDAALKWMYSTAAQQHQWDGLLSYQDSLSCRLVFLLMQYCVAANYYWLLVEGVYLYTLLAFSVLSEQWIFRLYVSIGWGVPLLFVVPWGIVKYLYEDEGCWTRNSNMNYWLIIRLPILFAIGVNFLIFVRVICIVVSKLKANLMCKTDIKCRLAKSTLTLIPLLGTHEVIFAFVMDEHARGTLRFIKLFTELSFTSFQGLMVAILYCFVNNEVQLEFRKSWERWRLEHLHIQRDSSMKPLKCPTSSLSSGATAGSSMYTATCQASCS
Procedure, shortened: (§1)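 Read-out: HTRF cAMP (anti-cAMP cryptate donor, cAMP-d2 acceptor in conjugate/lysis buffer), converted to % Delta F and fitted by 4-parameter logistic for EC50. Cell densities were 1×10^5 cells/mL (hGLP-1R) or 2×10^5 cells/mL (hGCGR). Stimulation lasted 30 min at room temperature.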

[2] = target: human glucagon receptor (hGCGR) (Homo sapiens, UniProt P47871); assay: cAMP production (HTRF) in CHO cells expressing hGCGR; assay type: cell-based; parameters: expressed in transfected cells; conditions: Table 6, peptides modified at position 17; cAMP in CHO hGCGR cells; geometric mean; read-out: hGluc-R EC50
Chain of human glucagon receptor (hGCGR) (P47871 26-477): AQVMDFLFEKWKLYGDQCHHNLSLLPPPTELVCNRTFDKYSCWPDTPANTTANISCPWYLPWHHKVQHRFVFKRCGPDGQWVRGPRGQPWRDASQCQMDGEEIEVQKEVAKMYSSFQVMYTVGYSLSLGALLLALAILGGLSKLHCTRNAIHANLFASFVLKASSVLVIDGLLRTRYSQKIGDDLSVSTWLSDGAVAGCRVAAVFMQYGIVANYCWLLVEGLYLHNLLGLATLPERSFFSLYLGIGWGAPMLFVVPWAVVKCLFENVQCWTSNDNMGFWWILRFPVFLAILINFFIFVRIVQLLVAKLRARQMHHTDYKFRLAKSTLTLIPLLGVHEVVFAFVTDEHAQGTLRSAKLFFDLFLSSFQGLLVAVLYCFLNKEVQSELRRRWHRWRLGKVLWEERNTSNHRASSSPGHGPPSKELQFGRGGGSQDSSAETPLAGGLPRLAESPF
Procedure, shortened: as §1

With `CC(C)C[C@H](NC(=O)[C@H](Cc1c[nH]c2ccccc12)NC(=O)[C@H](CCC(N)=O)NC(=O)[C@@H](NC(=O)[C@H](Cc1ccccc1)NC(=O)[C@H](CC(=O)O)NC(=O)[C@H](CCC(N)=O)NC(=O)[C@H](C)NC(=O)[C@H](CCCNC(=N)N)NC(=O)[C@H](CCCCNC(=O)COCCOCCNC(=O)COCCOCCNC(=O)CC[C@H](NC(=O)CCCCCCCCCCCCCCCCC(=O)O)C(=O)O)NC(=O)[C@H](CO)NC(=O)[C@H](CC(=O)O)NC(=O)[C@H](CC(C)C)NC(=O)[C@](C)(Cc1ccccc1)NC(=O)[C@H](CCCCN)NC(=O)[C@H](CO)NC(=O)[C@H](Cc1ccc(O)cc1)NC(=O)[C@H](CC(=O)O)NC(=O)[C@H](CO)NC(=O)[C@@H](NC(=O)[C@H](Cc1ccccc1)NC(=O)[C@@H](NC(=O)CNC(=O)[C@H](CCC(N)=O)NC(=O)C(C)(C)NC(=O)[C@@H](N)Cc1c[nH]cn1)[C@@H](C)O)[C@@H](C)O)C(C)C)C(=O)N[C@H](C(=O)NCCOCCOCCOCCOCCC(N)=O)C(C)C` [Peptide 41] (H-H[Aib]QGTFTSDYSK[αMeF]LDSK([AEEA-AEEA-γGlu-C18 diacid])RAQDFVQWLV[PEG4]-NH2; N-terminus assumed) as the compound, how does the EC50 [1] read?
The EC50 was 663 pM.

What about the “% Relative Potency Ratio” value [1] of the same compound?
Its value is 17.1.

What about the EC50 [2] of the same compound?
The EC50 was 5.74 nM.

`CC(C)C[C@H](NC(=O)C(C)(C)NC(=O)[C@H](CCC(N)=O)NC(=O)[C@@H](NC(=O)[C@H](Cc1ccccc1)NC(=O)[C@H](CC(=O)O)NC(=O)[C@H](CCC(N)=O)NC(=O)[C@H](C)NC(=O)[C@H](CCCNC(=N)N)NC(=O)[C@H](CCCCNC(=O)COCCOCCNC(=O)COCCOCCNC(=O)CC[C@H](NC(=O)CCCCCCCCCCCCCCCCC(=O)O)C(=O)O)NC(=O)[C@H](CO)NC(=O)[C@H](CC(=O)O)NC(=O)[C@H](CC(C)C)NC(=O)[C@](C)(Cc1ccccc1)NC(=O)[C@H](CCCCN)NC(=O)[C@H](CO)NC(=O)[C@@H](NC(=O)[C@H](CC(=O)O)NC(=O)[C@H](CO)NC(=O)[C@@H](NC(=O)[C@H](Cc1ccccc1)NC(=O)[C@@H](NC(=O)CNC(=O)[C@H](CCC(N)=O)NC(=O)C(C)(C)NC(=O)[C@@H](N)Cc1c[nH]cn1)[C@@H](C)O)[C@@H](C)O)C(C)C)C(C)C)C(=O)N[C@H](C(=O)N[C@@H](C)C(=O)N[C@H](C(=O)O)[C@@H](C)O)C(C)C` [Peptide 42] (H-H[Aib]QGTFTSDVSK[αMeF]LDSK([AEEA-AEEA-γGlu-C18 diacid])RAQDFVQ[Aib]LVAT-OH; N-terminus assumed) was tested. Which EC50 [1] did it give?
The EC50 was 665 pM.

And the “% Relative Potency Ratio” value [1]?
The value was 24.4.

And the EC50 [2]?
Its EC50 is 8.19 nM.

Which results are given for `CCCCCCCCCCCCCCCCCC(=O)N[C@@H](CCC(=O)N[C@@H](CCC(=O)NCCOCCOCCC(=O)NCCOCCOCCC(=O)NCCCC[C@H](NC(=O)[C@H](CO)NC(=O)[C@H](CC(=O)O)NC(=O)[C@H](CC(C)C)NC(=O)[C@@H](NC(=O)[C@H](CCCCN)NC(=O)[C@H](CO)NC(=O)[C@@H](NC(=O)[C@H](CC(=O)O)NC(=O)[C@H](CO)NC(=O)[C@@H](NC(=O)[C@](C)(Cc1ccccc1)NC(=O)[C@H](CO)NC(=O)CNC(=O)[C@H](CCC(N)=O)NC(=O)[C@H](CO)NC(=O)[C@@H](N)Cc1c[nH]cn1)[C@@H](C)O)C(C)C)C(c1ccccc1)c1ccccc1)C(=O)N[C@@H](C)C(=O)N[C@@H](C)C(=O)N[C@@H](CCC(N)=O)C(=O)N[C@@H](CC(=O)O)C(=O)N[C@@](C)(Cc1ccccc1)C(=O)N[C@H](C(=O)N[C@@H](CCC(N)=O)C(=O)NC(C)(C)C(=O)N[C@H](C(=O)N[C@@H](C)C(=O)N[C@@H](CC(N)=O)C(N)=O)[C@@H](C)CC)C(C)C)C(=O)O)C(=O)O` [Peptide 54] (H-HSQGS[αMeF]TSDVSK[Dip]LDSK([PEG2-PEG2-γGlu-γGlu-Stearoyl])AAQD[αMeF]VQ[Aib]IAN-NH2; N-terminus assumed)?
EC50 [1]: 2.81 pM; % Relative Potency Ratio [1]: 1.8; EC50 [2]: 0.00259 nM

Which results are given for `CCCCCCCCCCCCCCCCCC(=O)N[C@@H](CCC(=O)N[C@@H](CCC(=O)NCCOCCOCCC(=O)NCCOCCOCCC(=O)NCCCC[C@H](NC(=O)[C@H](CO)NC(=O)[C@H](CC(=O)O)NC(=O)[C@H](CC(C)C)NC(=O)[C@@H](NC(=O)[C@H](CCCCN)NC(=O)[C@H](CO)NC(=O)[C@@H](NC(=O)[C@H](CC(=O)O)NC(=O)[C@H](CO)NC(=O)[C@@H](NC(=O)[C@](C)(Cc1ccccc1)NC(=O)[C@H](CO)NC(=O)CNC(=O)[C@H](CCC(N)=O)NC(=O)[C@H](CO)NC(=O)[C@@H](N)Cc1c[nH]cn1)[C@@H](C)O)C(C)C)C(c1ccccc1)c1ccccc1)C(=O)N[C@@H](C)C(=O)N[C@@H](C)C(=O)N[C@@H](CCC(N)=O)C(=O)N[C@@H](CC(=O)O)C(=O)N[C@@](C)(Cc1ccccc1)C(=O)N[C@H](C(=O)N[C@@H](CCC(N)=O)C(=O)N[C@H](C(=O)N[C@@H](CC(C)C)C(=O)N[C@@H](CCC(=O)O)C(=O)N[C@@H](C)C(N)=O)C(c1ccccc1)c1ccccc1)C(C)C)C(=O)O)C(=O)O` [Peptide 55] (H-HSQGS[αMeF]TSDVSK[Dip]LDSK([PEG2-PEG2-γGlu-γGlu-Stearoyl])AAQD[αMeF]VQ[Dip]LEA-NH2; N-terminus assumed)?
EC50 [1]: 18.8 pM; % Relative Potency Ratio [1]: 2.0; EC50 [2]: 0.0191 nM

`CCCCCCCCCCCCCCCCCC(=O)N[C@@H](CCC(=O)N[C@@H](CCC(=O)NCCOCCOCCOCCOCCC(=O)NCCCC[C@H](NC(=O)[C@H](CO)NC(=O)[C@H](CC(=O)O)NC(=O)[C@H](CC(C)C)NC(=O)[C@@H](NC(=O)[C@H](CCCCN)NC(=O)[C@H](CO)NC(=O)[C@@H](NC(=O)[C@H](CC(=O)O)NC(=O)[C@H](CO)NC(=O)[C@@H](NC(=O)[C@](C)(Cc1ccccc1)NC(=O)[C@H](CO)NC(=O)CNC(=O)[C@H](CCC(N)=O)NC(=O)[C@H](CO)NC(=O)[C@@H](N)Cc1c[nH]cn1)[C@@H](C)O)C(C)C)C(c1ccccc1)c1ccccc1)C(=O)N[C@@H](C)C(=O)N[C@@H](C)C(=O)N[C@@H](CCC(N)=O)C(=O)N[C@@H](CC(=O)O)C(=O)N[C@@](C)(Cc1ccccc1)C(=O)N[C@H](C(=O)N[C@@H](CCC(=O)O)C(=O)NC(C)(C)C(=O)N[C@H](C(=O)N[C@H](C(=O)N[C@@H](CC(N)=O)C(=O)N[C@H](C(N)=O)[C@@H](C)O)[C@@H](C)CC)[C@@H](C)CC)C(C)C)C(=O)O)C(=O)O` [Peptide 56] (H-HSQGS[αMeF]TSDVSK[Dip]LDSK([PEG4-γGlu-γGlu-Stearoyl])AAQD[αMeF]VE[Aib]IINT-NH2; N-terminus assumed) was tested. Which EC50 [1] did it give?
The EC50 was 4.86 pM.

What about the “% Relative Potency Ratio” value [1] of the same compound?
The value was 4.4.

And the EC50 [2]?
The EC50 was 0.0109 nM.

`CCCCCCCCCCCCCCCCCC(=O)N[C@@H](CCC(=O)N[C@@H](CCC(=O)NCCOCCOCCOCCOCCOCCOCCOCCOCCC(=O)NCCCC[C@H](NC(=O)[C@H](CO)NC(=O)[C@H](CC(=O)O)NC(=O)[C@H](CC(C)C)NC(=O)[C@@H](NC(=O)[C@H](CCCCN)NC(=O)[C@H](CO)NC(=O)[C@@H](NC(=O)[C@H](CC(=O)O)NC(=O)[C@H](CO)NC(=O)[C@@H](NC(=O)[C@](C)(Cc1ccccc1)NC(=O)[C@H](CO)NC(=O)CNC(=O)[C@H](CCC(N)=O)NC(=O)[C@H](CO)NC(=O)[C@@H](N)Cc1c[nH]cn1)[C@@H](C)O)C(C)C)C(c1ccccc1)c1ccccc1)C(=O)N[C@@H](C)C(=O)N[C@@H](C)C(=O)N[C@@H](CCC(N)=O)C(=O)N[C@@H](CC(=O)O)C(=O)N[C@@](C)(Cc1ccccc1)C(=O)N[C@H](C(=O)N[C@@H](CCC(=O)O)C(=O)NC(C)(C)C(=O)N[C@H](C(=O)N[C@H](C(=O)N[C@@H](CC(N)=O)C(=O)N[C@H](C(N)=O)[C@@H](C)O)[C@@H](C)CC)[C@@H](C)CC)C(C)C)C(=O)O)C(=O)O` [Peptide 57] (H-HSQGS[αMeF]TSDVSK[Dip]LDSK([PEG8-γGlu-γGlu-Stearoyl])AAQD[αMeF]VE[Aib]IINT-NH2; N-terminus assumed) was tested. Which EC50 [1] did it give?
Its EC50 is 9.09 pM.

And the “% Relative Potency Ratio” value [1]?
The value was 3.7.

And the EC50 [2]?
The EC50 was 0.0169 nM.

With `CCCCCCCCCCCCCCCCCC(=O)N[C@@H](CCC(=O)N[C@@H](CCC(=O)NCCOCCOCCOCCOCCOCCOCCOCCOCCOCCOCCOCCOCCC(=O)NCCCC[C@H](NC(=O)[C@H](CO)NC(=O)[C@H](CC(=O)O)NC(=O)[C@H](CC(C)C)NC(=O)[C@@H](NC(=O)[C@H](CCCCN)NC(=O)[C@H](CO)NC(=O)[C@@H](NC(=O)[C@H](CC(=O)O)NC(=O)[C@H](CO)NC(=O)[C@@H](NC(=O)[C@](C)(Cc1ccccc1)NC(=O)[C@H](CO)NC(=O)CNC(=O)[C@H](CCC(N)=O)NC(=O)[C@H](CO)NC(=O)[C@@H](N)Cc1c[nH]cn1)[C@@H](C)O)C(C)C)C(c1ccccc1)c1ccccc1)C(=O)N[C@@H](C)C(=O)N[C@@H](C)C(=O)N[C@@H](CCC(N)=O)C(=O)N[C@@H](CC(=O)O)C(=O)N[C@@](C)(Cc1ccccc1)C(=O)N[C@H](C(=O)N[C@@H](CCC(=O)O)C(=O)NC(C)(C)C(=O)N[C@H](C(=O)N[C@H](C(=O)N[C@@H](CC(N)=O)C(=O)N[C@H](C(N)=O)[C@@H](C)O)[C@@H](C)CC)[C@@H](C)CC)C(C)C)C(=O)O)C(=O)O` [Peptide 58] (H-HSQGS[αMeF]TSDVSK[Dip]LDSK([PEG12-γGlu-γGlu-Stearoyl])AAQD[αMeF]VE[Aib]IINT-NH2; N-terminus assumed) as the compound, how does the EC50 [1] read?
The EC50 was 3.9 pM.

What about the “% Relative Potency Ratio” value [1] of the same compound?
The value was 5.7.

What about the EC50 [2] of the same compound?
The EC50 was 0.0113 nM.
